Measurements reported in patent publication US4014875A, “Process of making di or tribromomethanesulfonamides” (The Dow Chemical Company, priority 1975, dated 1977).
Values after ≈ are worked out from the molar mass of the structure shown.

What was measured:
Assay type in all cases: cell-based
P. aeruginosa = assay: agar dilution test, growth inhibition of P. aeruginosa; details: Pseudomonas aeruginosa; Pa = P. aeruginosa; 100% growth inhibition (kills); read-out: Minimum Growth Inhibitory Concentration
Description: (§1) In representative operations, compounds of the present invention were tested for their activity as antimicrobials using conventional agar dilution tests. The following Table presents results, expressed as concentration of toxicant in parts per million to achieve 100% growth inhibition (kills) of the indicated organisms.

S. aureus = assay: agar dilution test, growth inhibition of S. aureus; details: Staphylococcus aureus; Sa = S. aureus; 100% growth inhibition (kills); read-out: Minimum Growth Inhibitory Concentration
Description: as §1

C. albicans = assay: agar dilution test, growth inhibition of C. albicans; details: Candida albicans; Ca = C. albicans; 100% growth inhibition (kills); read-out: Minimum Growth Inhibitory Concentration
Description: as §1

T, mentagrophytes = assay: agar dilution test, growth inhibition of T, mentagrophytes; details: Tm = T, 100% growth inhibition (kills), read-out: Minimum Growth Inhibitory Concentration
Description: as §1

B. subtilis = assay: agar dilution test, growth inhibition of B. subtilis; design: key to Minimum Growth Inhibitory Concentration: *: 50% control at 500 ppm; details: Bs = B. subtilis, 100% growth inhibition (kills); for MIC: Bacillus subtilis, read-out: Minimum Growth Inhibitory Concentration
Description: as §1

A. terreus = assay: agar dilution test, growth inhibition of A. terreus; details: Aspergillus terreus; At = A. terreus; 100% growth inhibition (kills); read-out: Minimum Growth Inhibitory Concentration
Description: as §1

C. pelliculosa = assay: agar dilution test, growth inhibition of C. pelliculosa; details: Hansenula anomala; Cp = C. pelliculosa; 100% growth inhibition (kills); read-out: Minimum Growth Inhibitory Concentration
Description: as §1

P. pullulans = assay: agar dilution test, growth inhibition of P. pullulans; details: Pp = P. pullulans; 100% growth inhibition (kills); read-out: Minimum Growth Inhibitory Concentration
Description: as §1

M. phlei = assay: agar dilution test, growth inhibition of M. phlei; details: Mycolicibacterium phlei; Mp = M. phlei; 100% growth inhibition (kills); read-out: Minimum Growth Inhibitory Concentration
Description: as §1

R. nigricans = assay: agar dilution test, growth inhibition of R. nigricans; details: Rhizopus stolonifer; Rn = R. nigricans; 100% growth inhibition (kills); read-out: Minimum Growth Inhibitory Concentration
Description: as §1

Ceratocystis ips = assay: agar dilution test, growth inhibition of Ceratocystis ips; details: Ci = Ceratocystis ips; 100% growth inhibition (kills); read-out: Minimum Growth Inhibitory Concentration
Description: as §1

Cephaloascus fragans = assay: agar dilution test, growth inhibition of Cephaloascus fragans; details: Cf = Cephaloascus fragans; 100% growth inhibition (kills); read-out: Minimum Growth Inhibitory Concentration
Description: as §1

[1] = system: Trichoderm Sp. Madison P-42; assay: agar dilution test, growth inhibition of Trichoderm Sp. Madison P-42; details: Ts = Trichoderm Sp. Madison P-42; 100% growth inhibition (kills); read-out: Minimum Growth Inhibitory Concentration
Description: as §1

S. typhosa = assay: agar dilution test, growth inhibition of S. typhosa; details: St = S. typhosa; 100% growth inhibition (kills); read-out: Minimum Growth Inhibitory Concentration
Description: as §1

Structure (SMILES) | MIC (P. aeruginosa) | MIC (S. aureus) | MIC (C. albicans) | MIC (T, mentagrophytes) | MIC (B. subtilis) | MIC (A. terreus) | MIC (C. pelliculosa) | MIC (P. pullulans) | MIC (M. phlei) | MIC (R. nigricans) | MIC (Ceratocystis ips) | MIC (Cephaloascus fragans) | MIC [1] | Minimum Growth Inhibitory Concentration (B. subtilis) | MIC (S. typhosa)
CC1CN(S(=O)(=O)C(Br)(Br)Br)CC(C)O1 (stereo not shown) [1 (a), 2,6-Dimethyl-4-((tribromomethyl)sulfonyl)morpholine] | 100 µg/mL (≈ 233 µM) | 500 µg/mL (≈ 1160 µM) | 100 µg/mL (≈ 233 µM) | 100 µg/mL (≈ 233 µM) | 100 µg/mL (≈ 233 µM) | 10 µg/mL (≈ 23.3 µM) | 100 µg/mL (≈ 233 µM) | 100 µg/mL (≈ 233 µM) | 100 µg/mL (≈ 233 µM) | 100 µg/mL (≈ 233 µM) | 100 µg/mL (≈ 233 µM) | 100 µg/mL (≈ 233 µM) | 100 µg/mL (≈ 233 µM) | – | –
CC1CN(S(=O)(=O)C(Br)Br)CC(C)O1 (stereo not shown) [1 (b), 2,6-Dimethyl-4-((dibromomethyl)sulfonyl)morpholine] | > 500 µg/mL | > 500 µg/mL | 500 µg/mL (≈ 1420 µM) | 500 µg/mL (≈ 1420 µM) | – | 500 µg/mL (≈ 1420 µM) | 500 µg/mL (≈ 1420 µM) | 500 µg/mL (≈ 1420 µM) | > 500 µg/mL | 500 µg/mL (≈ 1420 µM) | > 500 µg/mL | 500 µg/mL (≈ 1420 µM) | > 500 µg/mL | * | > 500 µg/mL
O=S(=O)(N1CCOCC1)C(Br)(Br)Br [2 (b)] | 100 µg/mL (≈ 249 µM) | 500 µg/mL (≈ 1240 µM) | 100 µg/mL (≈ 249 µM) | 100 µg/mL (≈ 249 µM) | 100 µg/mL (≈ 249 µM) | 100 µg/mL (≈ 249 µM) | 100 µg/mL (≈ 249 µM) | 100 µg/mL (≈ 249 µM) | 100 µg/mL (≈ 249 µM) | 100 µg/mL (≈ 249 µM) | 100 µg/mL (≈ 249 µM) | 100 µg/mL (≈ 249 µM) | 100 µg/mL (≈ 249 µM) | – | –
